In brackets after ≈: the same amount, converted by molar mass. Read-outs that look alike come from different tables or passages of the source.
How the values were obtained:
Assay type in all cases: cell-based
[1] = tested on: Helicobacter pylori ATCC 43504; test: MIC, agar plating dilution (standard method of Japanese Chemotherapy Academy)
Experimental: (§1) 1. Minimum Inhibitory Concentration (MIC) was measured in accordance with the standard method of Japanese Chemotherapy Academy (Chemotherapy, 29: 76-79, 1981). Sensitivity was measured with an agar plating dilution using Brain-Heart Infusion agar (Difco Co.) which was added 0.1% of cyclodextrin. […] of the solutions of the compounds which were obtained in examples of the present invention was prepared by dissolving in dimethylsulfoxide. […] Each of 1 ml of those prepared solutions was dispensed in share, after sterilization, 9 ml of sensitivity measuring medium which is kept at 50° C. was added to each, and they were sufficiently mixed. The mixture was used as a plate for measuring sensitivity. Brain Heart Infusion agar medium (Difco Co.), which was added 0.1% of cyclodextrin, was used as bacteria growing medium, and was cultured under microair at 37° C. for three days, and the number of bacteria thereof was adjusted to about 106/ml. This was used as a bacterial solution for inoculation. The medium was painted in each square about 2 cm with nichromic line loop. The medium was cultured under microair for three days at 37° C.

[2] = tested on: Helicobacter pylori ATCC 43629; test: as above
Experimental: as §1

[3] = tested on: Escherichia coli NIH JC-2; test: MIC, standard method of Japanese Chemotherapy Academy; details: Objected Strain 3: Escherichia coli NIH JC-2
Experimental: 1. Minimum Inhibitory Concentration (MIC) was measured in accordance with the standard method of Japanese Chemotherapy Academy (Chemotherapy, 29: 76-79, 1981).

[4] = ATCC43504, Objected Strain 1: Helicobacter pylori ATCC 43504, read-out: MIC
[5] = ATCC43629, Objected Strain 2: Helicobacter pylori ATCC 43629, read-out: MIC
[6] = Objected Strain 1: Helicobacter pylori ATCC 43504
[7] = Objected Strain 2: Helicobacter pylori ATCC 43629

SMILES	MIC [1, 4] [mg/L]	MIC [2, 5] [mg/L]	MIC ([3]; NIHJC2, read-out: MIC) [mg/L]	MIC [1, 6] [mg/L]	MIC [2, 7] [mg/L]	MIC [3] [mg/L]
N=C(N)NCC1CCC(C(=O)Oc2ccc(C(=O)OCc3ccccc3)cc2)CC1 (stereo not drawn) [Compound 5, reference compound]	12.5 (≈ 30.5 µM)	6.25 (≈ 15.3 µM)	> 25			
Cl.N=C(N)NC[C@H]1CC[C@H](C(=O)Oc2ccc3cc(Br)ccc3c2)CC1 [Example 31, trans-4-guanidinomethyl cyclohexane carboxylic acid (6-bromo-2-naphthyl ester).hydrochloride]				3.13	0.78	>25
Cl.N=C(N)NC[C@H]1CC[C@H](C(=O)Oc2ccc(-c3ccc(Br)cc3)cc2)CC1 [Example 4, trans-4-guanidinomethyl cyclohexane carboxylic acid [4-(4-bromophenyl)phenylester].hydrochloride]				1.56	0.39	>25
Cl.N=C(N)NC[C@H]1CC[C@H](C(=O)Oc2cccc(-c3ccccc3)c2)CC1 [Example 1, trans-4-guanidinomethyl cyclohexane carboxylic acid (3-phenylphenylester).hydrochloride]				12.5	6.25	>25
Cl.N=C(N)NC[C@H]1CC[C@H](C(=O)Oc2c(Cl)cc(Cl)cc2-c2ccccc2)CC1 [Example 12, trans-4-guanidinomethyl cyclohexane carboxylic acid (2,4-dicloro-6-phenylphenylester).hydrochloride]				3.13	3.13	>25
CCc1ccc(OC(=O)C2CCC(CNC(=N)N)CC2)cc1 (stereo not drawn) [Compound 6, reference compound]	25 (≈ 82.4 µM)	25 (≈ 82.4 µM)	> 25			
CC(C)(C)c1ccc(OC(=O)C2CCC(CNC(=N)N)CC2)cc1 (stereo not drawn) [Compound 7, reference compound]	25 (≈ 75.4 µM)	12.5 (≈ 37.7 µM)	> 25			
Cl.N=C(N)NC[C@H]1CC[C@H](C(=O)Oc2ccccc2-c2ccccc2)CC1 [Compound 2, trans4-guanidinomethyl cyclohexane carboxylic acid (2-phenylphenylester)hydrochloride, reference compound]				25	25	>25
Cl.N=C(N)NC[C@H]1CC[C@H](C(=O)Oc2c(Cl)cc(Cl)c3ccccc23)CC1 [Example 29, trans-4-guanidinomethyl cyclohexane carboxylic acid (2,4-dichloro-1-naphthylester).hydrochloride]				6.25	12.5	>25
Cl.N=C(N)NC[C@H]1CC[C@H](C(=O)Oc2ccc(Oc3ccccc3)cc2)CC1 [Example 35, trans-4-guanidinomethyl cyclohexane carboxylic acid (4-phenoxyphenylester).hydrochloride]				12.5	25	>25
Cl.N=C(N)NC[C@H]1CC[C@H](C(=O)Oc2c(Cl)cc(Cl)c3ccccc23)CC1 [Example 30, trans-4-guanidinomethyl cyclohexane carboxylic acid (2,4-dichloro-1-naphthyleter).hydrochloride]				3.13	3.13	>25
Cl.N#Cc1ccc(-c2ccc(OC(=O)[C@H]3CC[C@H](CNC(=N)N)CC3)cc2)cc1 [Example 7, trans4-guanidinomethyl cyclohexane carboxylic acid [4-(4-cyanophenyl)phenylester].hydrochloride]				3.13	3.13	>25
Cl.N=C(N)NC[C@H]1CC[C@H](C(=O)Oc2ccc(C=Cc3ccccc3)cc2)CC1 [Example 38, trans-4-guanidinomethyl cyclohexane carboxylic acid (4-styrylphenylester).hydrochloride]				0.78	0.39	>25

Reference: patent publication US6831190B1, “Guanidinomethyl cyclohexane carboxylic acid ester derivatives” (Teikoku Chemical Industries Co., Ltd., priority 1994, dated 2004)
